Legend:
[1] = The drug is tested on Ruminococcus torques strain: ATCC27756 for biotransformation. The drug concentrations were measured before and after a 12-h incubation by liquid-chromatography-coupled mass spectrometry (LC–MS); format: ADME; design: dose 2 uM, timepoint 0 vs 12 hours; conditions: 2 µM
[2] = The drug is tested on Ruminococcus lactaris strain: ATCC29176 for biotransformation. The drug concentrations were measured before and after a 12-h incubation by liquid-chromatography-coupled mass spectrometry (LC–MS); conditions: 2 µM
[3] = The drug is tested on Bifidobacterium longum subsp. Infantis strain: CCUG52486 for biotransformation. The drug concentrations were measured before and after a 12-h incubation by liquid-chromatography-coupled mass spectrometry (LC–MS); conditions: 2 µM
[4] = The drug is tested on Bacteroides ovatus strain: ATCC8483 for biotransformation. The drug concentrations were measured before and after a 12-h incubation by liquid-chromatography-coupled mass spectrometry (LC–MS); conditions: 2 µM
[5] = The drug is tested on Blautia luti strain: DSM14534 for biotransformation. The drug concentrations were measured before and after a 12-h incubation by liquid-chromatography-coupled mass spectrometry (LC–MS); format: ADME; design: dose 2 uM, timepoint 0 vs 12 hours; conditions: 2 µM
[6] = bacteroides fragilis, 12 h, 2 µM
Description: The drug is tested on Bacteroides fragilis strain: 3397 (T10) for biotransformation. The drug concentrations were measured before and after a 12-h incubation by liquid-chromatography-coupled mass spectrometry (LC–MS)

[7] = The drug is tested on Eubacterium ventriosum strain: ATCC27560 for biotransformation. The drug concentrations were measured before and after a 12-h incubation by liquid-chromatography-coupled mass spectrometry (LC–MS); format: ADME; design: dose 2 uM, timepoint 0 vs 12 hours; conditions: 2 µM
[8] = The drug is tested on Bifidobacterium ruminantium strain: fecal isolate for biotransformation. The drug concentrations were measured before and after a 12-h incubation by liquid-chromatography-coupled mass spectrometry (LC–MS); conditions: 2 µM
[9] = The drug is tested on Clostridium asparagiforme strain: DSM15981 for biotransformation. The drug concentrations were measured before and after a 12-h incubation by liquid-chromatography-coupled mass spectrometry (LC–MS); format: ADME; design: dose 2 uM, timepoint 0 vs 12 hours; conditions: enterocloster asparagiformis, 2 µM
[10] = The drug is tested on Bacteroides dorei strain: DSM17855 for biotransformation. The drug concentrations were measured before and after a 12-h incubation by liquid-chromatography-coupled mass spectrometry (LC–MS); conditions: phocaeicola dorei, 2 µM
[11] = The drug is tested on Collinsella aerofaciens strain: ATCC25986 for biotransformation. The drug concentrations were measured before and after a 12-h incubation by liquid-chromatography-coupled mass spectrometry (LC–MS); conditions: 2 µM
[12] = The drug is tested on Clostridium scindens strain: ATCC35704 for biotransformation. The drug concentrations were measured before and after a 12-h incubation by liquid-chromatography-coupled mass spectrometry (LC–MS); conditions: 2 µM
[13] = bifidobacterium adolescentis, 12 h, 2 µM
Description: The drug is tested on Bifidobacterium adolescentis strain: ATCC 15703 for biotransformation. The drug concentrations were measured before and after a 12-h incubation by liquid-chromatography-coupled mass spectrometry (LC–MS)

[14] = roseburia intestinalis, 12 h, 2 µM
Description: The drug is tested on Roseburia intestinalis strain: L1-82 for biotransformation. The drug concentrations were measured before and after a 12-h incubation by liquid-chromatography-coupled mass spectrometry (LC–MS)

[15] = The drug is tested on Clostridium sp. strain: fecal isolate for biotransformation. The drug concentrations were measured before and after a 12-h incubation by liquid-chromatography-coupled mass spectrometry (LC–MS); conditions: 2 µM
[16] = The drug is tested on Clostridium sporogenes strain: ATCC15579 for biotransformation. The drug concentrations were measured before and after a 12-h incubation by liquid-chromatography-coupled mass spectrometry (LC–MS); conditions: 2 µM
[17] = The drug is tested on Eubacterium hallii strain: DSM3353 for biotransformation. The drug concentrations were measured before and after a 12-h incubation by liquid-chromatography-coupled mass spectrometry (LC–MS); conditions: anaerobutyricum hallii, 2 µM
[18] = bacteroides fragilis, 12 h, 2 µM; remark: listed apart in the source
Description: The drug is tested on Bacteroides fragilis strain: NCTC 9343 for biotransformation. The drug concentrations were measured before and after a 12-h incubation by liquid-chromatography-coupled mass spectrometry (LC–MS)

[19] = bacteroides thetaiotaomicron, 12 h, 2 µM
Description: The drug is tested on Bacteroides thetaiotaomicron strain: 3731 for biotransformation. The drug concentrations were measured before and after a 12-h incubation by liquid-chromatography-coupled mass spectrometry (LC–MS)

SMILES	Bacterial Biotransformation [1]	Bacterial Biotransformation [2]	Bacterial Biotransformation [3]	Bacterial Biotransformation [4]	Bacterial Biotransformation [5]	Bacterial Biotransformation [6]	Bacterial Biotransformation [7]	Bacterial Biotransformation [8]	Bacterial Biotransformation [9]	Bacterial Biotransformation [10]	Bacterial Biotransformation [11]	Bacterial Biotransformation [12]	Bacterial Biotransformation [13]	Bacterial Biotransformation [14]	Bacterial Biotransformation [15]	Bacterial Biotransformation [16]	Bacterial Biotransformation [17]	Bacterial Biotransformation [18]	Bacterial Biotransformation [19]
O=P(O)(O)O.c1ccc(CN(CC2=NCCN2)c2ccccc2)cc1 [ANTAZOLINE PHOSPHATE]	Compound NOT metabolized	Compound NOT metabolized	Compound NOT metabolized	Compound NOT metabolized	Compound NOT metabolized	Compound NOT metabolized	Compound NOT metabolized	Compound NOT metabolized	Compound NOT metabolized	Compound NOT metabolized	Compound NOT metabolized	Compound NOT metabolized	Compound NOT metabolized	Compound NOT metabolized	Compound NOT metabolized	Compound NOT metabolized	Compound NOT metabolized	Compound NOT metabolized	
C[C@]12CCC(=O)C=C1[C@@H]1C[C@@H]1[C@H]1[C@@H]3[C@@H]4C[C@@H]4[C@@]4(CCC(=O)O4)[C@@]3(C)CC[C@@H]12 [DROSPIRENONE]	Compound NOT metabolized	Compound NOT metabolized	Compound NOT metabolized		Compound NOT metabolized	Compound NOT metabolized	Compound NOT metabolized	Compound NOT metabolized	Compound NOT metabolized	Compound metabolized	Compound NOT metabolized	Compound NOT metabolized	Compound NOT metabolized		Compound NOT metabolized	Compound metabolized	Compound NOT metabolized	Compound metabolized	Compound NOT metabolized
C#C[C@]1(OC(C)=O)CC[C@H]2[C@@H]3CCC4=C[C@@H](OC(C)=O)CC[C@@H]4[C@H]3CC[C@@]21C [ETHYNODIOL DIACETATE]	Compound NOT metabolized	Compound NOT metabolized	Compound NOT metabolized	Compound NOT metabolized		Compound NOT metabolized	Compound NOT metabolized	Compound NOT metabolized	Compound NOT metabolized	Compound NOT metabolized	Compound NOT metabolized	Compound NOT metabolized	Compound NOT metabolized	Compound NOT metabolized	Compound NOT metabolized	Compound NOT metabolized		Compound NOT metabolized	Compound NOT metabolized
Cc1nc(-c2ccc(OCC(C)C)c(C#N)c2)sc1C(=O)O [FEBUXOSTAT]	Compound NOT metabolized	Compound metabolized	Compound NOT metabolized	Compound NOT metabolized	Compound NOT metabolized	Compound metabolized	Compound NOT metabolized	Compound NOT metabolized	Compound NOT metabolized	Compound metabolized	Compound NOT metabolized	Compound NOT metabolized	Compound NOT metabolized		Compound NOT metabolized	Compound NOT metabolized	Compound NOT metabolized	Compound NOT metabolized	Compound NOT metabolized
CCCCC1=NC2(CCCC2)C(=O)N1Cc1ccc(-c2ccccc2-c2nnn[nH]2)cc1 [IRBESARTAN]	Compound metabolized	Compound metabolized	Compound metabolized	Compound metabolized	Compound NOT metabolized		Compound NOT metabolized	Compound metabolized	Compound metabolized	Compound metabolized	Compound metabolized	Compound metabolized	Compound metabolized		Compound metabolized	Compound NOT metabolized	Compound metabolized	Compound metabolized	Compound NOT metabolized
NC(CO)(CO)CO.O=C(c1ccccc1)c1ccc2n1CCC2C(=O)O (configuration not stated) [KETOROLAC TROMETHAMINE]		Compound NOT metabolized	Compound NOT metabolized		Compound NOT metabolized		Compound NOT metabolized	Compound NOT metabolized	Compound NOT metabolized	Compound metabolized	Compound NOT metabolized	Compound NOT metabolized	Compound NOT metabolized		Compound metabolized	Compound NOT metabolized		Compound metabolized	Compound metabolized
CC12CC3CC(C)(C1)CC(N)(C3)C2 [MEMANTINE]	Compound NOT metabolized		Compound NOT metabolized	Compound NOT metabolized	Compound NOT metabolized	Compound NOT metabolized		Compound metabolized	Compound NOT metabolized	Compound NOT metabolized	Compound NOT metabolized	Compound NOT metabolized	Compound NOT metabolized		Compound NOT metabolized	Compound NOT metabolized	Compound NOT metabolized	Compound NOT metabolized	Compound NOT metabolized

From ChEMBL document CHEMBL5303573, “Mapping human microbiome drug metabolism by gut bacteria and their genes” (Nature, 2019)
